In patent US20220151229A1, “Synergistic Herbicidal Combinations” (Clariant International Ltd., priority 2019, published 2022):

Legend:
Type in all cases: in vivo
Lolium perenne - LOLPE = assay: Greenhouse post-emergence herbicide trial, Lolium perenne; settings: 200 L/ha, A1 7.5 % w/w
Excerpt: (§1) Standard post emergence herbicide application procedures were used, as described below, to apply inventive compounds in combination with sulfonylurea herbicides.
(§2) Seed of monocotyledonous and dicotyledonous harmful plants such as Brassica napus (BRSNW) Abutilon theophrasti (ABUTH), Alopecurus myosuroides (ALOMY), Amaranthus retroflexus (AMARE), Digitaria Sanguinalis (DIGSA), Echinochloa crus-galli (ECHCG), Erigeron canadensis (ERICA), Galium aparine (GALAP), Lolium perenne (LOLPE), Sectaria viridis (SETVI), Solanun nigrum (SOLNI), Viola arvensis (VIOAR) were sowed in 18 cm^2 pots. The plants were placed in a greenhouse under controlled environmental conditions, and sub-irrigation. About one week after emergence, seedlings were thinned as needed, including removal of any unhealthy or abnormal plants, to create a uniform series of test pots.
(§3) The plants were maintained for the duration of the test in the greenhouse, where they received a mean of 70 μmol m-2 s-1 of light per day/night. Temperatures averages about 24° C. during the day and about 20° C. during the night. Plants were sub-irrigated throughout the test to ensure adequate soil moisture levels.
(§4) Pots were assigned to different treatment in a randomized experimental design. A set of pots was left untreated as a reference against which effects of the treatments could later be evaluated. Application of tested formulations was made in a spray cabin model 01S-15E designed by CheckTec using the following parameters: • Two edge nozzle Lechler OC2, 200 L/ha, 3 bars. • Two edge nozzle Lechler OC3, 500 L/ha, 3 bars.
(§5) The distance of the nozzle from the plants was between 50 to 53 cm. and the nozzle spacing was 50 cm.
(§6) After treatment, pots were returned to the greenhouse until ready for evaluation. Evaluations were performed at different times after application (DAT: days after treatment), depending on the experiment.
(§7) For evaluation of herbicidal effectiveness, all plants in the test were examined by a single technician, who recorded percent control, a visual measurement of the effectiveness of each treatment by comparison with untreated plants. […] The reported % control values represent the average for all replicates of each treatment.
(§8) Iodosulfuron-methyl-sodium and Nicosulfuron were applied as dilutions of the active ingredient in water.

Solanum nigrum - SOLNI = assay: Greenhouse post-emergence herbicide trial, Solanum nigrum
Excerpt: as §1, §2, §3, §4, §5, §6, §7, §8

Brassica napus - BRSNW = assay: Greenhouse post-emergence herbicide trial, Brassica napus; settings: 200 L/ha, A1 7.5 % w/w
Excerpt: as §1, §2, §3, §4, §5, §6, §7, §8

Galium aparine - GALAP = assay: Greenhouse post-emergence herbicide trial, Galium aparine; settings: 200 L/ha, A1 7.5 % w/w
Excerpt: as §1, §2, §3, §4, §5, §6, §7, §8

Sectaria Viridis - SETVI = assay: Greenhouse post-emergence herbicide trial, Sectaria Viridis; settings: 200 L/ha, A1 7.5 % w/w
Excerpt: as §1, §2, §3, §4, §5, §6, §7, §8

“Pelargonic acid 6 EO ester methyl ether [A1]” showed an Effectiveness control (Lolium perenne - LOLPE; 1 DAT) of 11.50%, an Effectiveness control (Lolium perenne - LOLPE; 2 DAT) of 11.50% and an Effectiveness control (Lolium perenne - LOLPE; 7 DAT) of 5.00%. It also gave an Effectiveness control (Lolium perenne - LOLPE; 10 DAT) of 0.00%, an Effectiveness control (Lolium perenne - LOLPE; 16 DAT) of 0.00% and an Effectiveness control (Lolium perenne - LOLPE; 22 DAT) of 0.00%. For the same substance, the Effectiveness control (Lolium perenne - LOLPE; 28 DAT) was 0.00%, the Effectiveness control (Solanum nigrum - SOLNI; 200 L/ha, A1 0.1 % w/w, 1 DAT) was 0.00% and the Effectiveness control (Solanum nigrum - SOLNI; 200 L/ha, A1 0.1 % w/w, 2 DAT) was 0.00%. For the same substance, the Effectiveness control (Solanum nigrum - SOLNI; 200 L/ha, A1 0.1 % w/w, 7 DAT) was 0.00%, the Effectiveness control (Solanum nigrum - SOLNI; 200 L/ha, A1 0.1 % w/w, 15 DAT) was 0.00% and the Effectiveness control (Solanum nigrum - SOLNI; 200 L/ha, A1 0.1 % w/w, 21 DAT) was 0.00%. For the same substance, the Effectiveness control (Solanum nigrum - SOLNI; 200 L/ha, A1 2.5 % w/w, 1 DAT) was 0.00%, the Effectiveness control (Solanum nigrum - SOLNI; 200 L/ha, A1 2.5 % w/w, 2 DAT) was 0.00% and the Effectiveness control (Solanum nigrum - SOLNI; 200 L/ha, A1 2.5 % w/w, 7 DAT) was 0.00%. The Effectiveness control (Solanum nigrum - SOLNI; 200 L/ha, A1 2.5 % w/w, 15 DAT) was 0.00%, the Effectiveness control (Solanum nigrum - SOLNI; 200 L/ha, A1 2.5 % w/w, 21 DAT) was 0.00% and the Effectiveness control (Solanum nigrum - SOLNI; 200 L/ha, A1 5 % w/w, 1 DAT) was 0.75%. For the same substance, the Effectiveness control (Solanum nigrum - SOLNI; 200 L/ha, A1 5 % w/w, 2 DAT) was 3.50%, the Effectiveness control (Solanum nigrum - SOLNI; 200 L/ha, A1 5 % w/w, 7 DAT) was 3.50% and the Effectiveness control (Solanum nigrum - SOLNI; 200 L/ha, A1 5 % w/w, 15 DAT) was 0.00%. The Effectiveness control (Solanum nigrum - SOLNI; 200 L/ha, A1 5 % w/w, 21 DAT) was 0.00%, the Effectiveness control (Solanum nigrum - SOLNI; 200 L/ha, A1 10 % w/w, 1 DAT) was 25.00% and the Effectiveness control (Solanum nigrum - SOLNI; 200 L/ha, A1 10 % w/w, 2 DAT) was 48.50%. For the same substance, the Effectiveness control (Solanum nigrum - SOLNI; 200 L/ha, A1 10 % w/w, 7 DAT) was 50.50%, the Effectiveness control (Solanum nigrum - SOLNI; 200 L/ha, A1 10 % w/w, 15 DAT) was 47.50% and the Effectiveness control (Solanum nigrum - SOLNI; 200 L/ha, A1 10 % w/w, 21 DAT) was 38.75%. The Effectiveness control (Solanum nigrum - SOLNI; 500 L/ha, A1 0.1 % w/w, 1 DAT) was 0.00%, the Effectiveness control (Solanum nigrum - SOLNI; 500 L/ha, A1 0.1 % w/w, 2 DAT) was 0.00% and the Effectiveness control (Solanum nigrum - SOLNI; 500 L/ha, A1 0.1 % w/w, 7 DAT) was 0.00%. The Effectiveness control (Solanum nigrum - SOLNI; 500 L/ha, A1 0.1 % w/w, 15 DAT) was 0.00%, the Effectiveness control (Solanum nigrum - SOLNI; 500 L/ha, A1 0.1 % w/w, 21 DAT) was 0.00% and the Effectiveness control (Solanum nigrum - SOLNI; 500 L/ha, A1 2.5 % w/w, 1 DAT) was 10.00%. The Effectiveness control (Solanum nigrum - SOLNI; 500 L/ha, A1 2.5 % w/w, 2 DAT) was 21.25%, the Effectiveness control (Solanum nigrum - SOLNI; 500 L/ha, A1 2.5 % w/w, 7 DAT) was 13.75% and the Effectiveness control (Solanum nigrum - SOLNI; 500 L/ha, A1 2.5 % w/w, 15 DAT) was 7.75%. It also gave an Effectiveness control (Solanum nigrum - SOLNI; 500 L/ha, A1 2.5 % w/w, 21 DAT) of 5.00%, an Effectiveness control (Solanum nigrum - SOLNI; 500 L/ha, A1 5 % w/w, 1 DAT) of 26.00% and an Effectiveness control (Solanum nigrum - SOLNI; 500 L/ha, A1 5 % w/w, 2 DAT) of 42.50%. It also gave an Effectiveness control (Solanum nigrum - SOLNI; 500 L/ha, A1 5 % w/w, 7 DAT) of 32.50%, an Effectiveness control (Solanum nigrum - SOLNI; 500 L/ha, A1 5 % w/w, 15 DAT) of 28.75% and an Effectiveness control (Solanum nigrum - SOLNI; 500 L/ha, A1 5 % w/w, 21 DAT) of 27.50%. It also gave an Effectiveness control (Solanum nigrum - SOLNI; 500 L/ha, A1 10 % w/w, 1 DAT) of 65.50%, an Effectiveness control (Solanum nigrum - SOLNI; 500 L/ha, A1 10 % w/w, 2 DAT) of 75.50% and an Effectiveness control (Solanum nigrum - SOLNI; 500 L/ha, A1 10 % w/w, 7 DAT) of 72.50%. For the same substance, the Effectiveness control (Solanum nigrum - SOLNI; 500 L/ha, A1 10 % w/w, 15 DAT) was 63.75%, the Effectiveness control (Solanum nigrum - SOLNI; 500 L/ha, A1 10 % w/w, 21 DAT) was 53.00% and the Effectiveness control (Brassica napus - BRSNW; 1 DAT) was 74.25%. It also gave an Effectiveness control (Brassica napus - BRSNW; 2 DAT) of 78.00%, an Effectiveness control (Brassica napus - BRSNW; 7 DAT) of 75.00% and an Effectiveness control (Brassica napus - BRSNW; 10 DAT) of 56.25%. For the same substance, the Effectiveness control (Brassica napus - BRSNW; 16 DAT) was 39.25%, the Effectiveness control (Brassica napus - BRSNW; 22 DAT) was 33.50% and the Effectiveness control (Brassica napus - BRSNW; 28 DAT) was 32.50%. For the same substance, the Effectiveness control (Galium aparine - GALAP; 1 DAT) was 31.75%, the Effectiveness control (Galium aparine - GALAP; 2 DAT) was 34.00% and the Effectiveness control (Galium aparine - GALAP; 7 DAT) was 35.75%. The Effectiveness control (Galium aparine - GALAP; 10 DAT) was 20.00%, the Effectiveness control (Galium aparine - GALAP; 16 DAT) was 10.75% and the Effectiveness control (Galium aparine - GALAP; 22 DAT) was 10.75%. It also gave an Effectiveness control (Galium aparine - GALAP; 28 DAT) of 10.75%, an Effectiveness control (Sectaria Viridis - SETVI; 1 DAT) of 19.25% and an Effectiveness control (Sectaria Viridis - SETVI; 2 DAT) of 21.25%. It also gave an Effectiveness control (Sectaria Viridis - SETVI; 7 DAT) of 21.25%, an Effectiveness control (Sectaria Viridis - SETVI; 10 DAT) of 20.00% and an Effectiveness control (Sectaria Viridis - SETVI; 16 DAT) of 16.00%. For the same substance, the Effectiveness control (Sectaria Viridis - SETVI; 22 DAT) was 16.00% and the Effectiveness control (Sectaria Viridis - SETVI; 28 DAT) was 0.00%.
